Data published in patent US11534425B2, “Compounds for the treatment of acute organ injury” (priority 2018, dated 2022).
Like-named read-outs stand apart in the source and are kept apart here.

Legend:
[1] = tested on: pAKT473; experiment: pAKT473 levels in vivo, injured hippocampus after ACA; details: rat ACA, 1 or 3 mg/kg, iv 5 min after ROSC and ip 24 h post-injury, tissue 1 h after final injection
Experimental: A separate cohort of rats was used to generate hippocampal tissue homogenates. Rats were given ACA and subsequently treated with (a) vehicle, (b) 1 mg/kg NSC74429, or (c) 3 mg/kg NSC74429. Treatments were administered by iv bolus injection 5 min after ROSC, and a 2nd ip bolus injection 24 h post-injury. Shams were administered vehicle injections and preparatory surgery but were not injured. Rats were euthanized 1 h following the final drug injection and brain tissue collected for protein analysis. […] Data were analyzed by 1-Way-ANOVA and Newman-Keuls Multiple Comparison Test. Injured rats were randomized to treatment group, and drugs provided to a technician in de-identified coded vials. The technician that administered drug injections was blinded to treatment group. Graphs show Mean+SEM. Data are significant at p<0.05.

[2] = tested on: PHLPP2; details: reported by Sierecki and colleagues; read-out: IC50 to block PHLPP2; cited from earlier work
[3] = tested on: Primary rat cortical neurons; experiment: Glutamate-excitotoxicity assay, cell viability by CELLTITER-BLUE; type: cell-based; details: 10 μM glutamic acid 5 min, viability 24 h later
Experimental: (§1) Primary rat cortical neurons were cultured on poly-D-lysine coated 96-well plates at a density of 1×10^5/well in Neurobasal medium+B27 supplement. 1/2 media swaps were given every 3 d. ARA-c was added to the maintenance medium on day in vitro (DIV) 3 to inhibit glial proliferation. (A) On DIV9, maintenance media (2/3) was collected from plates and mixed with fresh media (1/3) to obtain 67% conditioned medium (CM). Cells were washed once with balanced salt solution (BSS supplemented with 5 mM glucose; 200 μL/well). BSS was replaced with BSS containing 10 μM glutamic acid, and incubated on cells 5 min to induce excitotoxicity. Glutamic acid/BSS was replaced with 100 μL/well CM, containing DMSO (control) or drugs, and returned to the incubator for 24 h (n=10 replicates/group). (B) DIV9 cells were washed once with BSS, injured 35 min with 40 μM H2O2 dissolved in BSS, and replaced with 100 μL/well CM containing DMSO (control) or drugs. Cell viability was determined 24 h later (DIV10) by addition of 20 μL/well CELLTITER-BLUE® (n=10 replicates/group). Data were analyzed by 1-Way-ANOVA and Newman-Keuls Multiple Comparison Test. Graphs show Mean+SEM. Data are significant at p<0.05. Excitotoxicity is a major cause of neuronal death across the spectrum of CNS injury.

[4] = tested on: Primary rat cortical neurons; experiment: Staurosporine (STS) injury assay, cell viability by CELLTITER-BLUE; type: cell-based
Experimental: Primary rat cortical neurons were cultured on poly-D-lysine coated 96-well plates at a density of 1×10^5/well in Neurobasal medium+B27 supplement. 1/2 media swaps were given every 3 d. ARA-c was added to the medium on day in vitro (DIV) 3 to inhibit glial proliferation. On DIV9, maintenance media (2/3) was collected from plates and mixed with fresh media (1/3) to obtain ˜67% conditioned medium (CM). Staurosporine (STS) and drugs were prepared in 100% DMSO and diluted in CM. Uninjured controls received an equal concentration of DMSO. Primary cortical neurons were incubated with +STS+drugs for in 100 μL/well CM. Cell viability was determined 24 h later (DIV10) by CELLTITER-BLUE® (n=10 replicates/group). […] Data were analyzed by 1-Way-ANOVA and Newman-Keuls Multiple Comparison Test. Graphs show Mean+SEM. Data are significant at p<0.05. Conclusion: NSC74429 is a potent a neuroprotectant as determined by the STS cell death assay.

[5] = tested on: Primary rat cortical neurons; experiment: Hydrogen peroxide (H2O2)-oxidative stress assay, cell viability by CELLTITER-BLUE; type: cell-based; details: 40 μM H2O2 35 min, viability 24 h later
Experimental: as §1

[6] = tested on: C57BL/6 mice; experiment: Adult mouse controlled cortical impact plus hemorrhagic shock (CCI+HS), CA1/CA3 cell counts; type: in vivo
Source text: Traumatic brain injury (TBI) compromises the BBB, making it easier for drugs to reach injured tissue, and TBI is also worsened by secondary injuries such as hypotension due to profound blood loss (HS). Adult male ˜28 g C57BL/6 mice were anesthetized with isoflurane via a nose cone (4% induction/2% maintenance on 70% N2O/30% O2), given preparatory surgery, and sequentially injured by (1) a CCI-TBI and (2) HS, as reported by our group (Jackson et al., 2015). In brief, mice were given a moderate CCI above the left parietal cortex (impact tip velocity 5 m/s and cortical depth 1.0 mm). 5 min later, HS was initiated by withdrawing blood until mean arterial pressure (MAP) decreased from ˜90 mmHG (normal) to ˜25-27 mmHG (hypotensive). HS was maintained for 35 min. Mice were then volume resuscitated using lactated ringer's (LR) solution for 90 min to mimic pre-hospital care (targeted MAP of ˜70 mmHG). Finally, shed blood was returned over 15 min to mimic definitive hospital care and MAP returned to normal. (A-D) In a first study we measured the acute neuroprotective effects of NSC74429 on hippocampal injury 48 h after CCI+HS. Mice were given an intravenous bolus injection of vehicle (5% DMSO in D5W) or NSC74429 (1 mg/kg or 3 mg/kg) immediately after the hospital phase (i.e. […] after the initial CCI-injury). A second intraperitoneal injection was administered 24 h later, and brains collected for CA1/CA3 cell counts 48 h post-injury. One animal died in the vehicle-injury group and four animals died in the 3 mg/kg NSC74429 group prior to tissue collection. (A and B) Scatter plots show CA1/CA3 cell counts in surviving animals. 1 mg/kg NSC74429 was neuroprotective. Hippocampal survival bifurcated in the 3 mg/kg high-dose group; some animals had improved CA1/CA3 survival vs. vehicle-injury whereas others were clearly made worse. Given that mortality was also higher with 3 mg/kg NSC74429 (4 vs. 1), we eliminated the high-dose group from further statistical analysis. (C and D) Statistical analysis of CA1/CA3 cell counts. […] (E and F) A second study was done to test if NSC74429 neuroprotection is sustained chronically by 7 d post-injury. Only the low dose (1 mg/kg) was tested. Mice were injured as described above, given intravenous injection of vehicle or 1 mg/kg drug immediately following the hospital phase of HS, supplemental injections administered intraperitoneally at 24 h, 48 h, and 72 h post-injury, and brains collected for histology 7 d post-injury. […] Data were analyzed by 1-Way-ANOVA and Newman-Keuls Multiple Comparison Test. Graphs show Mean+SEM. Data are significant at p<0.05. Injured rats were randomized to treatment group, and drugs provided to a technician in de-identified coded vials. The technician that administered drug injections, and the technician that analyzed histology, were blinded to treatment group. Conclusion: NSC74429 is neuroprotective in the acute and chronic phase after injury in a severe trauma model.

[7] = tested on: pAKT473; experiment: pAKT473 levels in cultured primary rat cortical neurons (Western blots); type: cell-based; details: 25 μM or 50 μM, 35 min
Experimental: We tested if NSC74429 also increases pAKT473 levels using our published protocol. In brief, uninjured primary rat cortical neurons were maintained in Neurobasal+B27. Prior to treatments, neurons were given a supplement starvation period by exchanging maintenance media with basic Neurobasal (i.e. minus B27), and returned to a 37° C. incubator for 2 h. Neurons were subsequently treated 35 min with DMSO, 25 μM NSC74429, or 50 μM NSC74429 (diluted in basic Neurobasal). Western blots confirm that PHLPP1 and PHLPP2 isoforms are detected in rat cortical neurons. […] PHLPP inhibitors increase pAKT473 levels but NSC74429 had the opposite effect. Moreover, inhibition of pAKT473 is expected to promote cell death yet NSC74429 (AKT inhibitor) was neuroprotective as shown in FIG. 1 and FIG. 2. […] Data were analyzed by 1-Way-ANOVA and Newman-Keuls Multiple Comparison Test. Graphs show Mean+SEM. Data are significant at p<0.05. Conclusion: Together PHLPP1 and PHLPP2 regulate the dephosphorylation of pAKT473 on AKT1, AKT2, and AKT3 isoforms.

[8] = tested on: Sprague Dawley rats; experiment: Adult rat asphyxia cardiac arrest (ACA), hippocampal CA1 cell survival counts; type: in vivo; details: 1 mg/kg or 3 mg/kg, given 5 min after ROSC
Source text: We tested the therapeutic efficacy of NSC74429 in a model of brain injury (ACA) in which the blood brain barrier (BBB) remains intact. Male ˜300 g Sprague Dawley rats were anesthetized on isoflurane (4% induction/2% maintenance on 50% O2/50% N2) and mechanically ventilated. The left femoral artery and vein were accessed and cannulated with heparinized-saline filled PE-50 tubing. EKG, mean arterial pressure (MAP), rectal temperature, and pectoralis temperature were continuously monitored. Body temperature was maintained to 37° C. Arterial blood gas measurements were analyzed and ventilator settings adjusted as needed to achieve normal PaO2 and PaCO2. 2 mg/kg cisatracurium was administered 5 min prior to CA to stop spontaneous breathing (i.e. neuromuscular blockage). The ventilator was disconnected. Mean arterial pressure (MAP) decreased over 2-3 min until reaching target no-flow (<10 mmHG). […] Data were analyzed by 1-Way-ANOVA and Newman-Keuls Multiple Comparison Test. […] The technician that administered drug injections, and the technician that analyzed histology, were blinded to treatment group. A single value in the vehicle-injury group (indicated by a * in the table above) was a statistical outlier as determined by the Dixon's test and was removed from statistical analysis. […]

[9] = tested on: pAKT473; details: primary rat cortical neurons, Jackson et al., 2013; cited from earlier work
[10] = 1 mg/kg iv then ip at 24 h, 48 h post-injury

S=C(Nc1ccc2cn[nH]c2c1)Nc1ccc2cn[nH]c2c1 [NSC74429]
pAKT473 levels in the injured hippocampus [1]: did not increase pAKT473 levels | IC50 [2]: 5 µM | glutamate-induced neuronal death ([3]; 25 μM): insufficient to decrease glutamate-induced neuronal death | glutamate-induced neuronal death (excitotoxic injury) ([3]; 50 μM): reduced excitotoxic injury | neuroprotection, cell viability after STS injury ([4]; 25-50 μM, viability 24 h later): potently neuroprotective | cell death induced by oxidative stress [5]: decreases cell death | CA1 survival ([6]; 1 mg/kg iv then ip at 24, 48, 72 h, 7 d post-injury): equivalent in both injured groups | CA3 tissue sparing, above vehicle injury ([6]; 1 mg/kg iv then ip at 24, 48, 72 h, 7 d post-injury, not statistically significant): ~17.5% | CA1 cell survival [6, 10]: significantly increased | CA3 cell survival [6, 10]: significantly increased | hippocampal CA1/CA3 survival ([6]; 3 mg/kg high-dose group, 48 h post-injury): bifurcated | mortality (animals died prior to tissue collection) ([6]; 3 mg/kg, vs. 1 in vehicle-injury group): 4 animals | pmTOR2448 (other phosphorylated proteins) ([7]; uninjured neurons): did not affect | pAKT473 levels ([7]; uninjured neurons after 2 h supplement starvation): dose-dependently decreased pAKT473 levels | hippocampal CA1 cell survival (neuroprotection) [8]: neuroprotective

Cc1cc(N=Nc2ccc(N=Nc3ccc(O)c(C(=O)[O-])c3)cc2)c(N)cc1N.[Na+] [NSC45586]
pAKT473 levels [9]: dose-dependently increase pAKT473 levels

Nc1c(S(=O)(=O)O)cc(Nc2cccc(S(N)(=O)=O)c2)c2c1C(=O)c1ccccc1C2=O [NSC117079]
pAKT473 levels [9]: dose-dependently increase pAKT473 levels

COc1cc(NCCC2CCCCN2)c2ncccc2c1 (stereo not shown) [NSC13378]
neuroprotection, cell viability after STS injury ([4]; viability 24 h later (DIV10)): failed to protect

CN(C)CCOC(=O)c1ccc(N)cc1 [NSC25247]
neuroprotection, cell viability after STS injury ([4]; 50 μM, viability 24 h later): mildly neuroprotective
